Measurements published in patent US11884627B2, “Compounds and compositions for treating conditions associated with LPA receptor activity” (Lhotse Bio, Inc., priority 2022, dated 2024).

Assays:
[1] = target: T1, human LPA1 (Homo sapiens, UniProt Q92633); assay: In vitro LPA1 functional antagonist assay (calcium mobilization, FLIPR); type: cell-based; conditions: CHO-K1 cells overexpressing human LPA1, Oleoyl LPA challenge at EC80
T1 construct: expressed in transfected cells; host or cells: CHO-K1
Procedure: In Vitro LPA1 Functional Antagonist Assay
CHO-K1 cells overexpressing human LPA1 were seeded in a total volume of 20 μL into black-walled, clear-bottom. Poly-D-lysine coated 384-well microplates and incubated at 37° C., for the appropriate time prior to testing. Assays were performed in 1× Dye Loading Buffer consisting of 1× Dye, 1× Additive A and 2.5 mM Probenecid in HBSS/20 mM Hepes. Probenicid was prepared fresh. Cells were loaded with dye prior to testing. Media was aspirated from cells and replaced with 20 μL Dye Loading Buffer. Cells were incubated for 30-60 minutes at 37° C. After dye loading, cells were removed from the incubator and 10 μL 3× test compound was added. Cells were incubated for 30 minutes at room temperature in the dark to equilibrate plate temperature followed by Oleoyl LPA challenge at EC80. Compound antagonist activity was measured on a FLIPR Tetra (MSD). Calcium mobilization was monitored for 2 minutes and 10 μL Oleoyl LPA in HBSS/20 mM Hepes was added to the cells 5 seconds into the assay. For LPA EC80 determination, after dye loading, cells were removed from the incubator and 10 μL HBSS/20 mM Hepes was added. 3× vehicle was included in the buffer. Cells were incubated for 30 minutes at room temperature in the dark to equilibrate plate temperature. Intermediate dilution of LPA stocks was performed to generate 4×LPA samples in assay buffer. LPA agonist activity was measured on a FLIPR Tetra (MSD). Calcium mobilization was monitored for 2 minutes and 10 μL 4×LPA sample in HBSS/20 mM Hepes was added to the cells 5 seconds into the assay. Compound activity was analyzed using CBIS data analysis suite (ChemInnovation, CA). Percentage inhibition is calculated using the following formula: % Inhibition=100%×(1−(mean RFU of test sample−mean RFU of vehicle control)/(mean RFU of LPA control−mean RFU of vehicle control)).
Table B1 and Table B2 show the biological activity of compounds in in vitro LPA1 functional antagonist assay. Activity of the tested compounds provided in Table B1 is as follows: +++=IC50<1 μM; ++=IC50 1 μM−10 μM; +=IC50>10 μM.

[2] = target: T1, human LPA1; assay: In vitro LPA1 calcium flux antagonist assay - Bioduro protocol; type: cell-based; conditions: CHO-K1 cells overexpressing human LPA1 and G15a, LPA challenge at EC80
In short: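 Calcium mobilization read on FLIPR after EC80 LPA was added to compound-pretreated (30 min) CHO-K1 cells co-expressing human LPA1 and G15a. Cells were starved 4 h and dye-loaded with Fluo-8 AM/2.5 mM probenecid in HBSS-Hepes; inhibition normalized between DMSO and LPA-control RFU.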

[3] = calcium mobilization on FLIPR Tetra, read-out: IC50
[4] = Table B3, read-out: Activity (IC50 class)
[5] = Table B1, read-out: Activity (IC50 class)

T1 sequence (Q92633 whole entry): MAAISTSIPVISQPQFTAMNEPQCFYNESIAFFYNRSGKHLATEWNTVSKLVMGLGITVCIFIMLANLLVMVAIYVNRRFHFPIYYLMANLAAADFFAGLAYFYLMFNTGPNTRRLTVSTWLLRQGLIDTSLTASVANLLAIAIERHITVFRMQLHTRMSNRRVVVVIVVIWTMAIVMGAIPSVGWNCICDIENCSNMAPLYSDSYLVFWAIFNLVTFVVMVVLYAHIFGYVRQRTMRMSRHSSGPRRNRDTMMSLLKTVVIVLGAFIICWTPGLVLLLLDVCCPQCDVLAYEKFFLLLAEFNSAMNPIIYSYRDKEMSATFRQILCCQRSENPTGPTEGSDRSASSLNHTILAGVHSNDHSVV

Structure (SMILES) | IC50 ([1]; Table B2, read-out: IC50) [nM] | IC50 [2, 3] [nM] | IC50 [2, 4] [nM] | IC50 [1, 5] [nM]
COc1cc(-c2ccc(NC3(C(=O)O)CCOCC3)cc2CCC2CCOC2)cc(OC)c1C (single isomer, unassigned) [Compound 185, 4-((3′,5′-dimethoxy-4′-methyl-2-(2-(tetrahydrofuran-3-yl)ethyl)-[1,1′-biphenyl]-4-yl)amino)tetrahydro-2H-pyran-4-carboxylic acid] | 9.54 | 12.6 | < 100 | 
COc1cc(-c2ccc(NCCC(=O)O)cc2COC2Cc3ccccc3C2)cc(OC)c1C [Compound 101, 3-((2-(((2,3-dihydro-1H-inden-2-yl)oxy)methyl)-3′,5′-dimethoxy-4′-methyl-[1,1′-biphenyl]-4-yl)amino)propanoic acid] | 27.2 | 340 | 100 to 1000 | < 1000
COc1cc(-c2ccc(NCCC(=O)O)cc2COCc2ccccc2)ccc1C(F)F [Compound 102] | 2490 |  |  | 1000 to 10000
COc1cc(OC)cc(-c2ccc(NCCC(=O)O)cc2COC2Cc3ccccc3C2)c1 [Compound 103] | 1540 |  |  | 1000 to 10000
COc1cc(OC)cc(-c2ccc(OCCC(=O)O)cc2COC2Cc3ccccc3C2)c1 [Compound 104] | 162 | 628 | 100 to 1000 | < 1000
COc1cc(-c2ccc(OCCC(=O)O)cc2COC2Cc3ccccc3C2)cc(OC)c1C [Compound 105, 3-((2-(((2,3-dihydro-1H-inden-2-yl)oxy)methyl)-3′,5′-dimethoxy-4′-methyl-[1,1′-biphenyl]-4-yl)oxy)propanoic acid] | 13.6 | 245 | 100 to 1000 | < 1000
COc1cc(OC2CC2)cc(-c2ccc(OC3(C(=O)O)CCOCC3)cc2COC2CCCC2)c1 [Compound 378] |  | 834 | 100 to 1000 | 
CCOc1cc(-c2ccc(OC3(C(=O)O)CCOCC3)cc2COC2CCCC2)cc(OC)c1C [Compound 379] |  | 67.3 | < 100 | 
CCOc1c(C)ccc(-c2ccc(NC3(C(=O)O)CCOCC3)cc2COC2CC2)c1F [Compound 381] |  | 17.5 | < 100 | 
CCOc1cc(OC)cc(-c2ccc(C3(C(=O)O)CC3)cc2COC2CC2)c1F [Compound 382] |  | > 10000 | > 1000 | 
CCOc1cccc(-c2ccc(NC3(C(=O)O)CCC(F)(F)CC3)cc2COC2CC2)c1C [Compound 383] |  | 0.847 | < 100 | 
CCOc1cccc(-c2ccc(NC3(C(=O)O)CCC(F)(F)CC3)cc2COC2CC2)c1C(F)F [Compound 384] |  | 0.803 | < 100 | 
CCOc1cccc(-c2ccc(NC3(C(=O)O)CCC(F)(F)CC3)cc2COC2CC2)c1Cl [Compound 385] |  | 0.633 | < 100 | 
O=C(O)C1(Nc2ccc(-c3cccc(OC4CC4)c3Cl)c(COC3CC3)c2)CCC(F)(F)CC1 [Compound 386] |  | 3.84 | < 100 | 
Cc1c(OC2CC2)cccc1-c1ccc(NC2(C(=O)O)CCC(F)(F)CC2)cc1COC1CC1 [Compound 387] |  | 4.39 | < 100 | 
CCOc1cc(OC)cc(-c2ccc(NC3(C(=O)O)CCC(F)(F)CC3)cc2COC2CC2)c1F [Compound 388] |  | 6.2 | < 100 | 
O=C(O)C1(Nc2ccc(-c3cccc(OC4CC4)c3C(F)F)c(COC3CC3)c2)CCC(F)(F)CC1 [Compound 389] |  | 0.772 | < 100 | 
CCCCOCc1cc(NC2(C(=O)O)CCOCC2)ccc1-c1cc(OC)cc(OCC)c1F [Compound 390] |  | 0.658 | < 100 | 
CCOc1cc(OC)cc(-c2ccc(C3(C(=O)O)CC3)cc2COC2CCCC2)c1F [Compound 391] |  | 471 | 100 to 1000 | 
Cc1ccc(-c2ccc(NC3(C(=O)O)CCOCC3)cc2COC2CC2)c(F)c1OC1CC1 [Compound 392] |  | 9.44 | < 100 | 
CCCc1nccc(-c2ccc(NC3(C(=O)O)CCOCC3)cc2COC2CC2)c1F [Compound 393] |  | > 10000 | > 1000 | 
CCOc1c(C)ccc(-c2ccc(NC3(C(=O)O)CCOCC3)cc2COCC(C)C)c1C [Compound 394] |  | 97.6 | < 100 | 

Structure (SMILES) | IC50 ([1]; Table B2, read-out: IC50) [nM] | IC50 [2, 3] [nM] | IC50 [2, 4] [nM] | IC50 [1, 5] [nM]
CCOc1cc(OC)cc(-c2ccc(NC3(C(=O)O)CCOCC3)cc2COCC(C)C)c1F [Compound 395] |  | 7.94 | < 100 | 
CCOc1c(C)c(OC)cc(-c2ccc(NC3(C(=O)O)CCOCC3)cc2COCC(C)C)c1F [Compound 396] |  | 27.5 | < 100 | 
COc1cc(-c2ccc(NC3(C(=O)O)CCOCC3)cc2COCC(C)C)c(C)c(OC)c1C [Compound 397] |  | 73 | < 100 | 
COc1cc(OC)c(Cl)c(-c2ccc(NC3(C(=O)O)CCOCC3)cc2COCC(C)C)c1 [Compound 398] |  | 104 | 100 to 1000 | 
CCCCOCc1cc(NC2(C(=O)O)CCOCC2)ccc1-c1ccc(C)c(OCC)c1C [Compound 399] |  | 6.41 | < 100 | 
CCCCOCc1cc(NC2(C(=O)O)CCOCC2)ccc1-c1cc(OC)c(C)c(OCC)c1F [Compound 400] |  | 5.37 | < 100 | 
CCCCOCc1cc(NC2(C(=O)O)CCOCC2)ccc1-c1cc(OC)c(C)c(OC)c1C [Compound 401] |  | 5.71 | < 100 | 
CCCCOCc1cc(NC2(C(=O)O)CCOCC2)ccc1-c1cc(OC)cc(OC)c1Cl [Compound 402] |  | 7.59 | < 100 | 
CCOc1cncc(-c2ccc(NC3(C(=O)O)CCOCC3)cc2COC2CC2)c1C(F)F [Compound 403] |  | 23.1 | < 100 | 
CCCCOCc1cc(NC2(C(=O)O)CCOCC2)ccc1-c1cncc(OCC)c1C(F)F [Compound 404] |  | 13 | < 100 | 
CCOc1cncc(-c2ccc(NC3(C(=O)O)CCC(F)(F)CC3)cc2COC2CC2)c1C(F)F [Compound 406] |  | 20 | < 100 | 
CCOc1cncc(-c2ccc(NC3(C(=O)O)CCOCC3)cc2COC2CC2)c1C [Compound 407] |  | 96.5 | < 100 | 
CCOc1c(C)ncc(-c2ccc(NC3(C(=O)O)CCOCC3)cc2COC2CC2)c1C [Compound 408] |  | 152 | 100 to 1000 | 
CCOc1cncc(-c2ccc(NC3(C(=O)O)CCOCC3)c(F)c2COC2CC2)c1C(F)F [Compound 409] |  | 229 | 100 to 1000 | 
CCOc1cncc(-c2c(C)cc(NC3(C(=O)O)CCOCC3)cc2COC2CC2)c1C(F)F [Compound 410] |  | 179 | 100 to 1000 | 
CCOc1cncc(-c2ccc(NC3(C(=O)O)CCOCC3)cc2COC2Cc3ccccc3C2)c1C [Compound 411, 4-({3-[(2,3-dihydro-1H-inden-2-yloxy)methyl]-4-(5-ethoxy-4-methylpyridin-3-yl)phenyl}amino)oxane-4-carboxylic acid] |  | 5.2 | < 100 | 
CCOc1cncc(-c2ccc(C3(C(=O)O)CC3)cc2COC2CCCC2)c1C(F)F [Compound 412] |  | 538 | 100 to 1000 | 
CCOc1cncc(-c2ccc(NC3(C(=O)O)CCOCC3)cc2COCCC(C)C)c1C(F)F [Compound 413, 4-({4-[4-(difluoromethyl)-5-ethoxypyridin-3-yl]-3-[(3-methylbutoxy)methyl]phenyl}amino) oxane-4-carboxylic acid] |  | 5.79 | < 100 | 
CCOc1c(C)ncc(-c2ccc(NC3(C(=O)O)CC(F)(F)C3)cc2COC2CC2)c1C [Compound 414] |  | 112 | 100 to 1000 | 
CCOc1cncc(-c2ccc(OC3(C(=O)O)CCOCC3)cc2COC2CC2)c1C(F)F [Compound 415] |  | 66.2 | < 100 | 
CCOc1cncc(-c2ccc(NC3(C(=O)O)CCOCC3)cc2COC2CC3CC3C2)c1C (centres unmarked) [Compound 416, 4-{[3-({bicyclo[3.1.0]hexan-3-yloxy}methyl)-4-(5-ethoxy-4-methylpyridin-3-yl)phenyl]amino}oxane-4-carboxylic acid] |  | 8.79 | < 100 | 
CCOc1cncc(-c2ccc(NC3(C(=O)O)CCCC3)cc2COC2CC2)c1C [Compound 417] |  | 35.8 | < 100 | 
